This assay deals with HiBiT-HSD17β13 fusion protein (N-terminal HiBiT-tagged HSD17β13 isoform D) in Huh7 HiBiT-HSD17β13 OE cells. Description: Whole-cell Huh7-HSD17B13 HiBiT assay (degrader potency and maximal efficacy, luminescence readout). It is filed as cell-based, human. Particulars: 24 hour incubation, geometric mean, * = geometric mean for all forms tested (parent and salt forms); for DC50: read-out: Huh7_HIBIT-HSD17β13_DC50 GMean DC50; for Huh7_HIBIT-HSD17β13_DC50 GMean Asymptote Maximum: max. concentration 1 μM. Summed up: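 Luminescence from lytic HiBiT detection tracked residual HiBiT-HSD17β13 (isoform D, N-terminal tag) in a stable Huh7 overexpressing clone after 24 h compound treatment at 37° C, 11 concentrations up to 1 μM final. Percent effect used DMSO (zero) and parental Huh7 (high) wells; four-parameter fit gave 50% degradation; viability checked by CellTiter-Glo.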

The structures appear in SMILES notation. Where a name gives a salt, the structure may show the parent alone.

For the compound `Cc1sc([C@]23CC[C@](CNC(=O)c4cc(F)c(O)c(F)c4F)(CC2)CC3)nc1-c1ccnc(N2CCN(CCCc3ccc4c(c3)n(C)c(=O)n4C3CCC(=O)NC3=O)CC2)n1` (mixture of isomers) [Example 122, N-{[4-(4-{2-[4-(3-{1-[(3RS)-2,6-dioxopiperidin-3-yl]-3-methyl-2-oxo-2,3-dihydro-1H-benzimidazol-5-yl}propyl)piperazin-1-yl]pyrimidin-4-yl}-5-methyl-1,3-thiazol-2-yl)bicyclo[2.2.2]octan-1-yl]methyl}-2,3,5-trifluoro-4-hydroxybenzamide], the 50% degradation concentration (DC50) (in general, the midpoint of the concentration-degradation curve) is 0.23 nM and the “Huh7_HIBIT-HSD17β13_DC50 GMean Asymptote Maximum” value is listed as 73%.
In the case of `Cn1c(=O)n(C2CCC(=O)NC2=O)c2ccc(CCCN3CCN(c4nc(-c5nc([C@]67CC[C@](CNC(=O)c8cc(F)c(O)c(F)c8F)(CC6)CC7)no5)cc(N5CCOCC5)n4)CC3)cc21` (mixture of isomers) [Example 123, N-{[4-(5-{2-[4-(3-{1-[(3RS)-2,6-dioxopiperidin-3-yl]-3-methyl-2-oxo-2,3-dihydro-1H-benzimidazol-5-yl}propyl)piperazin-1-yl]-6-(morpholin-4-yl)pyrimidin-4-yl}-1,2,4-oxadiazol-3-yl)bicyclo[2.2.2]octan-1-yl]methyl}-2,3,5-trifluoro-4-hydroxybenzamide], the DC50 stood at 0.23 nM and the “Huh7_HIBIT-HSD17β13_DC50 GMean Asymptote Maximum” value is given as 79%.
Turning to `COc1c(C(=O)NC[C@]23CC[C@](c4noc(-c5ccnc(N6CCN(CCCc7ccc8c(c7)n(C)c(=O)n8C7CCC(=O)NC7=O)CC6)n5)n4)(CC2)CC3)cc(F)c(O)c1F` (mixture of isomers) [Example 124, N-{[4-(5-{2-[4-(3-{1-[(3RS)-2,6-dioxopiperidin-3-yl]-3-methyl-2-oxo-2,3-dihydro-1H-benzimidazol-5-yl}propyl)piperazin-1-yl]pyrimidin-4-yl}-1,2,4-oxadiazol-3-yl)bicyclo[2.2.2]octan-1-yl]methyl}-3,5-difluoro-4-hydroxy-2-methoxybenzamide, trifluoroacetate salt], the DC50 amounted to 0.27 nM and the “Huh7_HIBIT-HSD17β13_DC50 GMean Asymptote Maximum” value worked out at 72%.
With `Cn1c(=O)n(C2CCC(=O)NC2=O)c2ccc(CCCN3CCN(c4nc(-c5nc([C@]67CC[C@](CNC(=O)c8cc(F)c(O)c(F)c8F)(CC6)CC7)no5)cc(-n5ccnc5)n4)CC3)cc21` (mixture of isomers) [Example 125, N-{[4-(5-{2-[4-(3-{1-[(3RS)-2,6-dioxopiperidin-3-yl]-3-methyl-2-oxo-2,3-dihydro-1H-benzimidazol-5-yl}propyl)piperazin-1-yl]-6-(1H-imidazol-1-yl)pyrimidin-4-yl}-1,2,4-oxadiazol-3-yl)bicyclo[2.2.2]octan-1-yl]methyl}-2,3,5-trifluoro-4-hydroxybenzamide, formate salt], the DC50 came out at 0.28 nM and the “Huh7_HIBIT-HSD17β13_DC50 GMean Asymptote Maximum” value is 85%.
In the case of `COc1nc(-c2ccc3cn([C@H]4CC[C@H](CNC(=O)c5cc(F)c(O)c(F)c5F)CC4)nc3c2)nc2c1CN(CCCc1ccc3c(c1)n(C)c(=O)n3C1CCC(=O)NC1=O)C2` (mixture of isomers) [Example 126, N-{[(1r,4r)-4-{6-[6-(3-{1-[(3RS)-2,6-dioxopiperidin-3-yl]-3-methyl-2-oxo-2,3-dihydro-1H-benzimidazol-5-yl}propyl)-4-methoxy-6,7-dihydro-5H-pyrrolo[3,4-d]pyrimidin-2-yl]-2H-indazol-2-yl}cyclohexyl]methyl}-2,3,5-trifluoro-4-hydroxybenzamide, trifluoroacetate salt], the half-maximal degradation concentration (DC50) turned out to be 0.36 nM and the “Huh7_HIBIT-HSD17β13_DC50 GMean Asymptote Maximum” value stood at 84%.
As for `Cn1c(=O)n(C2CCC(=O)NC2=O)c2ccc(CCCN3CCN(c4nc(-c5nc([C@]67CC[C@](CNC(=O)c8cc(F)c(O)c(F)c8F)(CC6)CC7)no5)cc(N5CCCC5)n4)CC3)cc21` (mixture of isomers) [Example 127, N-{[4-(5-{2-[4-(3-{1-[(3RS)-2,6-dioxopiperidin-3-yl]-3-methyl-2-oxo-2,3-dihydro-1H-benzimidazol-5-yl}propyl)piperazin-1-yl]-6-(pyrrolidin-1-yl)pyrimidin-4-yl}-1,2,4-oxadiazol-3-yl)bicyclo[2.2.2]octan-1-yl]methyl}-2,3,5-trifluoro-4-hydroxybenzamide, trifluoroacetate salt], the half-maximal degradation concentration (DC50) was determined as 0.37 nM and the “Huh7_HIBIT-HSD17β13_DC50 GMean Asymptote Maximum” value turned out to be 79%.
Consider `COc1cc(-c2nc([C@]34CC[C@](CNC(=O)c5cc(F)c(O)c(F)c5F)(CC3)CC4)no2)nc(N2CCN(CCCc3ccc4c(c3)n(C)c(=O)n4C3CCC(=O)NC3=O)CC2)n1` (mixture of isomers) [Example 128, N-{[4-(5-{2-[4-(3-{1-[(3RS)-2,6-dioxopiperidin-3-yl]-3-methyl-2-oxo-2,3-dihydro-1H-benzimidazol-5-yl}propyl)piperazin-1-yl]-6-methoxypyrimidin-4-yl}-1,2,4-oxadiazol-3-yl)bicyclo[2.2.2]octan-1-yl]methyl}-2,3,5-trifluoro-4-hydroxybenzamide], for which the 50% degradation concentration (DC50) worked out at 0.4 nM and the “Huh7_HIBIT-HSD17β13_DC50 GMean Asymptote Maximum” value was 79%.
In the case of `Cn1c(=O)n(C2CCC(=O)NC2=O)c2ccc(CCCN3Cc4ccc(-c5ccc6c(C7CC7)n([C@H]7CC[C@H](CNC(=O)c8cc(F)c(O)c(F)c8F)CC7)nc6c5)cc4C3)cc21` (mixture of isomers) [Example 129, N-{[(1r,4r)-4-{3-cyclopropyl-6-[2-(3-{1-[(3RS)-2,6-dioxopiperidin-3-yl]-3-methyl-2-oxo-2,3-dihydro-1H-benzimidazol-5-yl}propyl)-2,3-dihydro-1H-isoindol-5-yl]-2H-indazol-2-yl}cyclohexyl]methyl}-2,3,5-trifluoro-4-hydroxybenzamide, trifluoroacetate salt], the half-maximal degradation concentration (DC50) was 0.42 nM and the “Huh7_HIBIT-HSD17β13_DC50 GMean Asymptote Maximum” value was 83%.
With `Cn1c(=O)n(C2CCC(=O)NC2=O)c2ccc(CCCN3CCN(c4cnc(-c5ccn6cc([C@]78CC[C@](CNC(=O)c9cc(F)c(O)c(F)c9F)(CC7)CC8)nc6c5)cn4)CC3)cc21` (mixture of isomers) [Example 130, N-{[4-(7-{5-[4-(3-{1-[(3RS)-2,6-dioxopiperidin-3-yl]-3-methyl-2-oxo-2,3-dihydro-1H-benzimidazol-5-yl}propyl)piperazin-1-yl]pyrazin-2-yl}imidazo[1,2-a]pyridin-2-yl)bicyclo[2.2.2]octan-1-yl]methyl}-2,3,5-trifluoro-4-hydroxybenzamide, trifluoroacetate salt], the DC50 was 0.5 nM and the “Huh7_HIBIT-HSD17β13_DC50 GMean Asymptote Maximum” value is on record as 83%.
Take `O=C1CCC(N2Cc3cc(N4CCC(CCN5CCN(c6nccc(-c7nc([C@]89CC[C@](CNC(=O)c%10cc(F)c(O)c(F)c%10F)(CC8)CC9)no7)n6)CC5)CC4)ccc3C2=O)C(=O)N1` (mixture of isomers) [Example 132, N-({4-[5-(2-{4-[2-(1-{2-[(3RS)-2,6-dioxopiperidin-3-yl]-1-oxo-2,3-dihydro-1H-isoindol-5-yl}piperidin-4-yl)ethyl]piperazin-1-yl}pyrimidin-4-yl)-1,2,4-oxadiazol-3-yl]bicyclo[2.2.2]octan-1-yl}methyl)-2,3,5-trifluoro-4-hydroxybenzamide, trifluoroacetate salt]: the half-maximal degradation concentration (DC50) stood at 1.6 nM and the “Huh7_HIBIT-HSD17β13_DC50 GMean Asymptote Maximum” value was 82%.
For the compound `Cn1c(=O)n(C2CCC(=O)NC2=O)c2ccc(CC(C)(C)CN3CCN(c4nccc(-c5nc([C@]67CC[C@](CNC(=O)c8cc(F)c(O)c(F)c8F)(CC6)CC7)no5)n4)CC3)cc21` (mixture of isomers) [Example 134, N-{[4-(5-{2-[4-(3-{1-[(3RS)-2,6-dioxopiperidin-3-yl]-3-methyl-2-oxo-2,3-dihydro-1H-benzimidazol-5-yl}-2,2-dimethylpropyl)piperazin-1-yl]pyrimidin-4-yl}-1,2,4-oxadiazol-3-yl)bicyclo[2.2.2]octan-1-yl]methyl}-2,3,5-trifluoro-4-hydroxybenzamide, trifluoroacetate salt], the half-maximal degradation concentration (DC50) stood at 6.5 nM and the “Huh7_HIBIT-HSD17β13_DC50 GMean Asymptote Maximum” value came to 85%.
For `O=C1CCN(c2cnn3cc(CCCN4CCO[C@]5(CCN(c6ccc7cn([C@H]8CC[C@H](CNC(=O)c9cc(F)c(O)c(F)c9F)CC8)nc7c6)C5)C4)ccc23)C(=O)N1` (single isomer, unassigned) [Example 30, trifluoroacetate salt], the DC50 stood at 1.7 nM and the “Huh7_HIBIT-HSD17β13_DC50 GMean Asymptote Maximum” value is 74%.
Taken in the same sequence, the figures for `Cc1ccc(C(=O)N2CCN(CCOc3ncc(-c4ccc5cn(C6CCC(CNC(=O)c7cc(F)c(O)c(F)c7F)CC6)nc5c4)cn3)CC2)cc1N1CCC(=O)NC1=O.O=C(O)C(F)(F)F` (stereo not shown) [Example 7, N-{[(1r,4r)-4-{6-[2-(2-{4-[3-(2,4-Dioxo-1,3-diazinan-1-yl)-4-methylbenzoyl]piperazin-1-yl}ethoxy)pyrimidin-5-yl]-2H-indazol-2-yl}cyclohexyl]methyl}-2,3,5-trifluoro-4-hydroxybenzamide, trifluoroacetate salt] were 3 nM and 78* %.
As to `Cl.O=C1CCN(c2cnn3cc(CCCN4CCN(c5cnc(-c6ccc7cn([C@H]8CC[C@H](CNC(=O)c9cc(F)c(O)c(F)c9F)CC8)nc7c6)cn5)CC4)ccc23)C(=O)N1` [Example 10, N-{[(1r,4r)-4-{6-[5-(4-{3-[3-(2,4-Dioxo-1,3-diazinan-1-yl)pyrazolo[1,5-a]pyridin-6-yl]propyl}piperazin-1-yl)pyrazin-2-yl]-2H-indazol-2-yl}cyclohexyl]methyl}-2,3,5-trifluoro-4-hydroxybenzamide, hydrochloride salt], the DC50 turned out to be 0.28 nM and the “Huh7_HIBIT-HSD17β13_DC50 GMean Asymptote Maximum” value is recorded as 82%.
